This note sets out measurements from patent publication US9371265B2, “Compositions and methods related to inhibitors of JAK kinase” (EP PHARMA, INC., priority 2012, dated 2016).

Assay [1] deals with SU-DHL-1 cells. Kind of assay: SU-DHL-1 cell viability (MTS). It counts as cell-based. Conditions: Homo sapiens; SU-DHL-1, 72 hours. Here is the method: (§1) FIGS. 7A-7C. EP009 reduces ALCL cell viability through induction of caspase 3 mediated apoptosis. (A) SUP-M2, SU-DHL-1 or H2228 cells were cultured with increasing amounts of EP009 (0-10 μM) for 72 hours and cell viability measured with the MTS tetrazolium salt assay. Values represent mean absorbance (OD490-OD650 nm) normalized to vehicle (PBS) treated control cells, while error bars represent the standard deviation (n=3). (B) SU-DHL-1 cells were treated with vehicle (PBS) or increasing amounts of EP009 (0-50 μM) for 24 hours. Cells were then lysed, clarified, and subjected to Luminex multiplex analysis to detect activated caspase 3 and (C) cleaved PARP. Values represent MFI normalized to corresponding GAPDH MFI, while error bars represent the standard deviation (n=2). Representative data from three independent experiments are shown. Statistical significance was determined using Student's t-test. (*, p<0.05).
Cell viability was assessed with 3-(4,5-dimethylthiazol-2-yl)-5-(3-carboxymethoxyphenyl)-2-(4-sulfophenyl)-2H-tetrazolium salt (MTS) reagent (Promega) in triplicates according to the manufacturer's instructions. Three independent experiments were performed. The error bars represent standard deviation.

Assay [2] concerns caspase 3. Kind of assay: Caspase 3 activation in SU-DHL-1 cells (Luminex multiplex). It counts as cell-based, human. Conditions: 24 hours, dose-dependent. Here is the method:
as §1
The MILLIPLEX MAP 8-plex Multi-Pathway Signaling Phosphoprotein kit (Millipore) was used to detect phosphorylated ERK1/2 (Thr185/Tyr187), STAT3 (Ser727), JNK1/2 (Thr183/Tyr185), p70 S6 kinase (Thr412), IκBα (Ser32), STAT5A/B (Tyr694/699), CREB (Ser133), and p38 (Thr180/Tyr182). The MILLIPLEX MAP 5-plex STAT Phosphoprotein kit (Millipore) was used to detect phosphorylated STAT1 (Tyr701), STAT2 (Tyr690), STAT3 (Tyr705), STAT5A/B (Tyr694/699), and STAT6 (Tyr641). […]

Assay [3] addresses YANK3 (Homo sapiens, UniProt Q86UX6). The experiment in a line: Kinase panel: YANK3. In kind it is biochemical. The following applies: 10 μM EP009. The protocol: (§2) Achieving JAK3 selectivity remains a significant challenge in the development of new small molecules for the treatment of cancer and immune-derived diseases. As such, the inventors employed cell-based screening assays of small-molecule libraries based upon the chemical scaffold of the established JAK3 inhibitor NC1153 (Stepkowski et al., J Immunol. (2005), 175(7):4236-4246) EP009 (FIG. 2A) was selected as a lead compound due to improved intrinsic stability (>95% purity in various solvents at 37° C. for 24 hours; FIG. 3) and high-degree of JAK3 selectivity. To test JAK3 versus JAK2 specificity of EP009, the IL-2/JAK3-dependent Kit225, and IL-3/JAK2-dependent BaF/3 cell lines were used. Kit225 and BaF/3 cells growing in the presence of IL-2 or IL-3, respectively, were treated with ascending concentrations of EP009 for 12 hours and cellular JAK3 and JAK2 tyrosine phosphorylation levels detected by Western blot analysis (FIGS. 2B and 2C). Following densitometric analysis, EP009 was determined to dose-dependently reduce IL-2-mediated JAK3 tyrosine phosphorylation with a cellular 50% inhibitory concentration (IC50) between 10 and 20 μM (FIG. 2B). […] To globally evaluate specificity, the inhibitory activity of EP009 was measured against a panel of protein kinases distributed throughout the kinome using the scanEDGE profiling service (KINOMEscan). […]

For assay [4], the target named is MARK3 (Homo sapiens, UniProt P27448). The experiment in a line: Kinase panel: MARK3. In kind it is biochemical. Conditions: 10 μM EP009. The protocol: as §2
Sequence of MARK3 (P27448 whole entry): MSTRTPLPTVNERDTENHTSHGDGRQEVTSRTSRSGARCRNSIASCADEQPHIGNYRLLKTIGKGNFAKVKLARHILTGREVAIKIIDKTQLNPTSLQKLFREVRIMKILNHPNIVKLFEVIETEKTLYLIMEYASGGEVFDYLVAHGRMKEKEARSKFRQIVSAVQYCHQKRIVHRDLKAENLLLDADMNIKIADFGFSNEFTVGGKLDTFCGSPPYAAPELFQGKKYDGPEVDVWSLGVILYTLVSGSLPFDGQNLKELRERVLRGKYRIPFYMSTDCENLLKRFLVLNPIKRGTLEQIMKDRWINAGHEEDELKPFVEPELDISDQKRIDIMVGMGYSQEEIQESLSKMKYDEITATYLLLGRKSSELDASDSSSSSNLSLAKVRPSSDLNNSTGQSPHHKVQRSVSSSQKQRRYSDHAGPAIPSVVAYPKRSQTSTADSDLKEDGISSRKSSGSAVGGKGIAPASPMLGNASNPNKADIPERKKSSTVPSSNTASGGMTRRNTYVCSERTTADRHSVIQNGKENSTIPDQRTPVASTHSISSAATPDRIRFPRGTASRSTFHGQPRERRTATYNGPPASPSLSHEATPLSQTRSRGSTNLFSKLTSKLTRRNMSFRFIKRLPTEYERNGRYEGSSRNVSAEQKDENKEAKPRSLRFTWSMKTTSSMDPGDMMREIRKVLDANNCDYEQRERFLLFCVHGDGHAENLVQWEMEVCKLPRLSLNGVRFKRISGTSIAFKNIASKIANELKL

Sequence of YANK3 (Q86UX6 whole entry): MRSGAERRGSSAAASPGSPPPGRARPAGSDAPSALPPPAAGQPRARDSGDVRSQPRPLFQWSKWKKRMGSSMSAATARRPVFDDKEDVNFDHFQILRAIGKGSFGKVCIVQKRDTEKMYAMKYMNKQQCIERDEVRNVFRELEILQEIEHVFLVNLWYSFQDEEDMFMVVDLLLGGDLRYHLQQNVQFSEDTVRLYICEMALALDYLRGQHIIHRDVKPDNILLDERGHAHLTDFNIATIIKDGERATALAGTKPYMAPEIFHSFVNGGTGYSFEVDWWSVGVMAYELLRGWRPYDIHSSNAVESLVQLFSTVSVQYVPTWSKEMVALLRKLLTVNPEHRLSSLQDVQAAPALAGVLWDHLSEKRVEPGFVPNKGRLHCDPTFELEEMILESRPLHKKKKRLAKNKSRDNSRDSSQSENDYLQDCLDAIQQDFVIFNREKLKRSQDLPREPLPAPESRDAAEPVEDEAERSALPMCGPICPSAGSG

`C=C1CCCCCCCCCC(CO)C1=O` (stereo not shown) [EP009, 2-(Hydroxymethyl)-12-methylenecyclododecanone] displayed an IC50 in assay [1] of 5 µM. Moreover, in assay [2], the caspase-3 activation entry was “increased”. For the same molecule, the “Kinase Activity (% of Control)” value was 98 % of Control in assay [3] and 100 % of Control in assay [4].
